The test has as its system retinal ganglion cells (RGCs). Nature of the test: Optic nerve axotomy model of glaucoma: RGC survival in vivo. Also noted: species or system Long-Evans rats. The source says:
As a model for studying treatment of glaucoma, damaged (axotomized) retinal ganglion cells were employed. Specifically, transection of the optic nerve close to the cell body causes apoptotic death of retinal ganglion cells (RGCs), similar to that found in glaucoma. […] Three days later, the left optic nerve was intraorbitally transected 1 mm from the globe. One day after axotomy, no remarkable change in the fluorescence pattern of RGCs was seen compared to that of controls. RGC density, as assessed by the number of fluorescently-labeled cells, began to decline between 4 and 7 days post axotomy. By 14 days, a substantial number of fluorescently-labeled RGCs appeared to have been lost. Morphologically, in whole-mounted retinas stained with cresyl violet, ganglion cell layer (GCL) of unlesioned control retinas manifest no apoptotic profiles or pyknotic nuclei. In contrast, by 10 days after axotomy, multiple degenerating cell bodies with pyknotic nuclei were apparent in the GCL, and the cell density in this layer appeared to be greatly diminished. When hydroxystilbamidine fluorescence in the GCL was quantified, in unlesioned control retinas the mean RGC density was 2533±104 cells/mm^2 (mean±SD). Within 14 days of axotomy, the mean RGC density decreased to 348±107 (14% of control).
One day after axotomy, activated (di-phosphorylated) p38 was visualized by immunocytochemistry in the RGC layer, but not in control retinas. By Western blotting, phosphorylated p38 was first detected 12 hours after axotomy and reached a maximum at 24 hours before decreasing. SB 203580 was administered intravitreally at the time of axotomy, and repeated at 5 days and 10 days.
Retrograde labeling of retinal ganglion cells. Adult male Long-Evans rats weighing 200 to 250 g were obtained from a local breeder and, for all experimental manipulations, were anesthetized with 1-2% isoflurane and 70% N2O. RGCs were retrogradely labeled with hydroxystilbamidine (Molecular Probes, Eugene, Oreg., also known as Fluoro-Gold™) to allow accurate counting of cell bodies as described in Vorwerk et al., Invest. Ophthalmol. Vis. Sci. 40:813-816. Rats were anesthetized and placed in a small stereotactic instrument. The skull was exposed and kept dry. The bregma was identified and marked, and a small window was drilled above the right hemisphere, leaving the dura intact.
Axotomy. Optic nerve axotomy was performed on the left eye 4 days after retrograde labeling. After incision of the dorsolateral conjunctiva, the lateral extraocular muscle was transected, and the optic nerve was exposed under a stereoscopic microscope. The optic nerve was then transected at a distance of about 1 mm from the eye bulb. During the operation, care was taken to avoid damage to the retinal blood supply.
Drug application. Intravitreal injections were carried out using a 33-gauge needle attached to a 25 μl syringe following pupil dilation with 1% atropine sulfate. The tip of the needle was inserted through the dorsal limbus of the eye under stereomicroscopic visualization. Injections were completed over a period of 1 min. Intravitreal injections of SB 203580 (Calbiochem, San Diego, Calif.), MK801 (Research Biochemicals International, Natick, Mass.) or control solutions (as an equal volume of saline diluent) were performed on operated eyes immediately after axotomy, and repeated 5 and 10 days post axotomy.
Quantification of axotomized RGC survival and histology. […]

Regarding `C[S+]([O-])c1ccc(-c2nc(-c3ccc(F)cc3)c(-c3ccncc3)[nH]2)cc1` (stereo not shown) [SB 203580, 4-(4-fluorophenyl)-2-(4-methylsulfinylphenyl)-5-(4-pyridyl)-1H-imidazole], the “neuroprotection of RGCs” value (0.2 nmol intravitreal (corresponding to 1.6 μM), 14 days post axotomy) is “significant degree of neuroprotection”. Moreover, the “number of surviving RGCs” value is reported as 1,347 cells/mm^2 (10 nmol intravitreal, 14 days post axotomy, axotomy alone 348, control 2,511); “increased the number of surviving RGCs in a dose-dependent manner” (14 days post axotomy, intravitreal at axotomy, 5 and 10 days, dose series). The “RGC protection on addition to MK801, compared with MK801 alone” value (SB 203580 added to MK801, intravitreal, axotomy) is given as “did not offer further protection”.

Values taken from patent US20030078274A1, “Method of reducing neuronal injury or apoptosis” (priority 1999, published 2003).
